Laboratory results: patent US10995129B2 (Case Western Reserve University, priority 2011, dated 2021)

Key:
[1] = molecular target: A isoform of the insulin receptor (IR-A) (Homo sapiens, UniProt P06213); test: Affinity of the GluA8, TrpA13, ChaB24 analogue for receptor isoform A; assay type: binding
[2] = molecular target: B isoform of the insulin receptor (IR-B) (Homo sapiens, UniProt P06213); test: Affinity of the GluA8, TrpA13, ChaB24 analogue for receptor isoform B; assay type: binding
[3] = tested on: Normal male Sprague-Dawley rats; test: Hyperinsulinemic-euglycemic clamp; assay type: in vivo, rat
Procedure: A primed infusion of glucose was administered followed by a continuous dosage. […] Glucose appearance and disposal was determined by calculating the difference between glucose infused and glucose present in the plasma as determined by glucometer. Plasma levels of plasma nonesterified fatty acids (NEFA) are determined using a colorimeteric assay such as the assay kit available from Fujifilm Wako Diagnostics (Mountain View, Calif.). Phosphorylation relative to basal level was measured using Western blot analysis of samples harvested from liver, gastrocnemius and epididymal white adipose tissue (eWAT), and immunoblotted using anti-phosphotyrosine antibody (Cell Signaling Technologies, Inc., Danvers, Mass., Phospho-IGF-I Receptor β ([MUT]) Rabbit monoclonal antibody #3918). Similarly Akt phosphorylation was similarly tested using Cell Signaling Technology, Inc. (Danvers, Mass.) antibody No. 9271 as primary antibody and horse radish peroxidase (HRP)-linked Anti-rabbit IgG antibody No. 7074 (Cell Signaling Technology, Inc., Danvers, Mass.).

## CHA: insulin analogue with Glu A8, Trp A13 and cyclohexanylalanine B24; SEQ ID NOS: 50 and 51
[1]
  lower affinity for the A isoform of the insulin receptor: five
[2]
  lower affinity for the B isoform of the insulin receptor: 13 fold
[3]; FIG. 16B
  increase of insulin stimulated whole body glucose disposal (Rd): to a similar degree
[3]; FIG. 16B legend
  insulin stimulated whole body glucose disposal (Rd): 21.1 ± 1.4 mg/kg/min
[3]; Western blot, FIG. 16D
  insulin receptor tyrosine phosphorylation (IRKpY) in liver, vs KP: decrease
[3]; Western blot, FIG. 16E
  IRKpY activation in gastrocnemius muscle, vs KP: to a similar degree
[3]; Western blot, FIG. 16F
  IRKpY activation in epididymal white adipose tissue (eWAT), vs KP: to a similar degree
[3]; during clamp
  GINF (glucose infusion): 21.1 ± 1.4 mg/kg/min
[3]; during clamp, KP 24, CHA 40 pmol/kg-min
  clamped plasma glucose concentration: 111.1 ± 5.1 mg/dL
[3]; hyperinsulinemic conditions, p=0.001
  suppression of endogenous glucose production (EGP): 28.2±16.7%
[3]; rat, in vivo
  2-deoxyglucose uptake in eWAT: 0.72±0.1 mg glucose·kg tissue^−1·min^−1
  2-deoxyglucose uptake in gastrocnemius: 18.6±2.5 mg glucose·kg tissue^−1·min^−1
